These results are taken from patent US20240083897A1, “GCN2 MODULATING COMPOUNDS AND USES THEREOF” (HiberCell, Inc., priority 2021, published 2024).

The target in one test is GCN2 (Homo sapiens (Human), UniProt Q9P2K8). As to the kind of experiment: TR-FRET biochemical assay for inhibition of GCN2.
Sequence of GCN2 (Q9P2K8 whole entry): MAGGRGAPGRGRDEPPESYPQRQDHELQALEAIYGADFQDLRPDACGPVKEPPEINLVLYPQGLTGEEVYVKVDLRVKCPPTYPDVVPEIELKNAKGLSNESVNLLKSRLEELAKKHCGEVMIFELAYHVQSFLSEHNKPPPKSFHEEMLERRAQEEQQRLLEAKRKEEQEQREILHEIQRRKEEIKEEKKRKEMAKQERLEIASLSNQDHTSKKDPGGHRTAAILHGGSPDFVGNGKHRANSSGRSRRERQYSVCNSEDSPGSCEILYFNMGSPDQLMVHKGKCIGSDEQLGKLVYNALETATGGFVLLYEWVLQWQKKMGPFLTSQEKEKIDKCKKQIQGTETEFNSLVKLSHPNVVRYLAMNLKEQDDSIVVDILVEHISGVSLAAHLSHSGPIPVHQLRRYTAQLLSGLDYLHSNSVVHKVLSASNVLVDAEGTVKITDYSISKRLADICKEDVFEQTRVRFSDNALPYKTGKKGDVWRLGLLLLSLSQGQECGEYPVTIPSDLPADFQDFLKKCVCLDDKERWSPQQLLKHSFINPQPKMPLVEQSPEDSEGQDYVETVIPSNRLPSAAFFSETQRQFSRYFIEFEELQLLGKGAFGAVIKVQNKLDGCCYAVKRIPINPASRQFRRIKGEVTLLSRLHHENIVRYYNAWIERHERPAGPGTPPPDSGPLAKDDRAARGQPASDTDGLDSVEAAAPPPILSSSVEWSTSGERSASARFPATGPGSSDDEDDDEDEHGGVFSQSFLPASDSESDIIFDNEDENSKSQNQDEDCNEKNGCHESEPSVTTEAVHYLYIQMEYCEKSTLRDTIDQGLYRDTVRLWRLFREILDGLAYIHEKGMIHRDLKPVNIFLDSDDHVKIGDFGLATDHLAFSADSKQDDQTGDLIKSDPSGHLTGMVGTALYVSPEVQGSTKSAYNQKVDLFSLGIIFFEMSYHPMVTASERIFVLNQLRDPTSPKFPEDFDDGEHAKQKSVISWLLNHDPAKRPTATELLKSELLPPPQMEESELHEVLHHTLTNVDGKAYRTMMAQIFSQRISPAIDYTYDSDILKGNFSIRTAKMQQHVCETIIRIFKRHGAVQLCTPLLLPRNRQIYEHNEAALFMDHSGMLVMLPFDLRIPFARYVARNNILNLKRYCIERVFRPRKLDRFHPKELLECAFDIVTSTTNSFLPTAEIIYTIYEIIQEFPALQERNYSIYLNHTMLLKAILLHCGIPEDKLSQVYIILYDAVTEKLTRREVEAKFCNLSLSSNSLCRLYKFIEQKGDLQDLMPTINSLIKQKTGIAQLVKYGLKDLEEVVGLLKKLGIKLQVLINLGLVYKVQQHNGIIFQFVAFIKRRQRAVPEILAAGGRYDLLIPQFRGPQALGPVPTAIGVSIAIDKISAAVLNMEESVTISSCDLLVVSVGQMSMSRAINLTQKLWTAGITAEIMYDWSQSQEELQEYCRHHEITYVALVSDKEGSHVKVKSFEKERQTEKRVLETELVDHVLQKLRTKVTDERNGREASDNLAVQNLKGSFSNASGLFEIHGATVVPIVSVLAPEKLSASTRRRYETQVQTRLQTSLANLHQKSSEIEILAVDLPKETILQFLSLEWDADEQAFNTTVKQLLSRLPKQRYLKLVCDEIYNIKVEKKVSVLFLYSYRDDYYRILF
Conditions: not given
In turn, `CNC(=O)c1ncn2c1CN(C)[C@@H](c1c(F)ccc(NS(=O)(=O)c3cc(Cl)cnc3OC)c1F)C2` (single isomer, unassigned) [Compound 33-2] had an IC50 of 500 to 1000 nM.
Compound `CNC(=O)c1ncn2c1CCC(c1c(Cl)ccc(NS(=O)(=O)c3cc(F)cnc3OC)c1F)C2` (stereo in doubt) [Compound 155-2, (6S)-6-[6-chloro-2-fluoro-3-(5-fluoro-2-methoxypyridine-3-sulfonamido)phenyl]-N-methyl-5H,6H,7H,8H-imidazo[1,5-a]pyridine-1-carboxamide] returned an IC50 of 50 to 500 nM.
The same measure, in the same setting: next, `CNC(=O)c1ncn2c(C)c(-c3c(F)ccc(NS(=O)(=O)c4cc(Cl)cnc4OC)c3F)ccc12` [Compound 11, 6-[3-(5-chloro-2-methoxypyridine-3-sulfonamido)-2,6-difluorophenyl]-N,5-dimethyl imidazo[1,5-a]pyridine-1-carboxamide]: 50 to 500 nM; `CNC(=O)c1ncn2cc(-c3c(F)ccc(NS(=O)(=O)c4cc(Cl)cnc4OC)c3F)c(OC)nc12` [Compound 17, 3-[3-(5-chloro-2-methoxypyridine-3-sulfonamido)-2,6-difluorophenyl]-2-methoxy-N-methylimidazo[1,5-a]pyrimidine-8-carboxamide]: 50 to 500 nM; `CNC(=O)c1ncn2cc(-c3c(F)ccc(NS(=O)(=O)c4cc(Cl)cnc4OC)c3F)c(=O)n(C)c12` [Compound 22, 3-[3-(5-chloro-2-methoxypyridine-3-sulfonamido)-2,6-difluorophenyl]-N,1-dimethyl-2-oxoimidazo[1,5-a]pyrimidine-8-carboxamide]: 50 to 500 nM.
The same measure, in the same setting: next, `CNC(=O)c1ncn2cc(-c3c(F)ccc(NS(=O)(=O)c4cc(C#N)cc(C(F)(F)F)c4)c3F)ccc12` [Compound 23, 6-[3-[3-cyano-5-(trifluoromethyl)benzenesulfonamido]-2,6-difluorophenyl]-N-methylimidazo[1,5-a]pyridine-1-carboxamide]: 50 to 500 nM; `CNC(=O)c1ncn2c1CC[C@H](c1c(F)ccc(NS(=O)(=O)c3cc(Cl)cnc3OC)c1F)C2` [Compound 27-1, (6R)-6-[3-(5-chloro-2-methoxypyridine-3-sulfonamido)-2,6-difluorophenyl]-N-methyl-5H,6H,7H,8H-imidazo[1,5-a]pyridine-1-carboxamide]: 50 to 500 nM.
Same read-out and setting: under `CNC(=O)c1ncn2c1CC[C@@H](c1c(F)ccc(NS(=O)(=O)c3cc(Cl)cnc3OC)c1F)C2` [Compound 27-2, (6S)-6-[3-(5-chloro-2-methoxypyridine-3-sulfonamido)-2,6-difluorophenyl]-N-methyl-5H,6H,7H,8H-imidazo[1,5-a]pyridine-1-carboxamide] stands 50 to 500 nM.
As to `COc1ncc(Cl)cc1S(=O)(=O)Nc1ccc(F)c(-c2ccc3c(-c4nnc[nH]4)ncn3c2)c1F` [Compound 29, 5-chloro-N-[2,4-difluoro-3-[1-(4H-1,2,4-triazol-3-yl)imidazo[1,5-a]pyridin-6-yl]phenyl]-2-methoxypyridine-3-sulfonamide], the IC50 was under 50 nM.

The test is the same for the next values; noted with them: GCN2 2 nM, 100 nM GFP-eIF2a, 150 μM ATP, TR-FRET.
`CNC(=O)c1ncn2c1CN(C)[C@H](c1c(F)ccc(NS(=O)(=O)c3cc(Cl)cnc3OC)c1F)C2` (single isomer, unassigned) [Compound 33-1] had an IC50 of over 1000 nM.
On the same count and under the same terms, next, `Cc1ncc(Cl)cc1S(=O)(=O)Nc1ccc(F)c([C@H]2CCc3c(-c4ncc[nH]4)ncn3C2)c1F` (single isomer, unassigned) [Compound 84-1]: under 50 nM.
Still for that read-out and setting: next, `Cc1ncc(Cl)cc1S(=O)(=O)Nc1ccc(F)c([C@@H]2CCc3c(-c4ncc[nH]4)ncn3C2)c1F` (single isomer, unassigned) [Compound 84-2]: under 50 nM; `CNC(=O)c1ncn2c1CCC(c1c(Cl)ccc(NS(=O)(=O)c3cc(F)cnc3OC)c1F)C2` (stereo in doubt) [Compound 155-1, (6R)-6-[6-chloro-2-fluoro-3-(5-fluoro-2-methoxypyridine-3-sulfonamido)phenyl]-N-methyl-5H,6H,7H,8H-imidazo[1,5-a]pyridine-1-carboxamide]: under 50 nM; `CNC(=O)c1ncn2nc(-c3c(F)ccc(NS(=O)(=O)c4cc(Cl)cnc4C)c3F)ccc12` [Compound 5, 2-[3-(5-chloro-2-methylpyridine-3-sulfonamido)-2,6-difluorophenyl]-N-methylimidazo[1,5-b]pyridazine-5-carboxamide]: under 50 nM.
Still for that read-out and setting: next, `CNC(=O)c1ncn2cc(-c3c(F)ccc(NS(=O)(=O)c4cc(C#N)cnc4C)c3F)ccc12` [Compound 9, 6-[3-(5-cyano-2-methylpyridine-3-sulfonamido)-2,6-difluorophenyl]-N-methylimidazo[1,5-a]pyridine-1-carboxamide]: under 50 nM.
Compound `CNC(=O)c1ncn2cc(-c3c(F)ccc(NS(=O)(=O)c4cc(F)cc5c4CCC5O)c3F)ccc12` (stereo not shown) [Compound 10, 6-[2,6-difluoro-3-(6-fluoro-1-hydroxy-2,3-dihydro-1H-indene-4-sulfonamido)phenyl]-N-methylimidazo[1,5-a]pyridine-1-carboxamide] came in with an IC50 of under 50 nM.
On the same count and under the same terms, under `CNC(=O)c1ncn2nc(-c3c(F)ccc(NS(=O)(=O)c4cc(F)cnc4C)c3F)ccc12` [Compound 12, 2-[2,6-difluoro-3-(5-fluoro-2-methylpyridine-3-sulfonamido)phenyl]-N-methylimidazo[1,5-b]pyridazine-5-carboxamide] stands under 50 nM; under `CNC(=O)c1ncn2cc(-c3c(F)ccc(NS(=O)(=O)c4cc(C(F)(F)F)cnc4OC)c3F)ccc12` [Compound 13, 6-[2,6-difluoro-3-[2-methoxy-5-(trifluoromethyl)pyridine-3-sulfonamido]phenyl]-N-methylimidazo[1,5-a]pyridine-1-carboxamide], under 50 nM; under `CNC(=O)c1ncn2c(OC)c(-c3c(F)ccc(NS(=O)(=O)c4cc(Cl)cnc4OC)c3F)ccc12` [Compound 15, 6-[3-(5-chloro-2-methoxypyridine-3-sulfonamido)-2,6-difluorophenyl]-5-methoxy-N-methylimidazo[1,5-a]pyridine-1-carboxamide], over 1000 nM.
Same read-out and setting: under `COc1ncc(F)cc1S(=O)(=O)Nc1ccc(F)c(-c2ccc3c(-c4ncc[nH]4)ncn3c2)c1F` [Compound 18, N-[2,4-difluoro-3-[1-(1H-imidazol-2-yl)imidazo[1,5-a]pyridin-6-yl]phenyl]-5-fluoro-2-methoxypyridine-3-sulfonamide] stands under 50 nM.
Same read-out and setting: next, `Cc1ncc(F)cc1S(=O)(=O)Nc1ccc(F)c(-c2ccc3c(-c4ncc[nH]4)ncn3c2)c1F` [Compound 19, N-[2,4-difluoro-3-[1-(1H-imidazol-2-yl)imidazo[1,5-a]pyridin-6-yl]phenyl]-5-fluoro-2-methylpyridine-3-sulfonamide]: under 50 nM; `COc1ncc(C#N)cc1S(=O)(=O)Nc1ccc(F)c(-c2ccc3c(-c4ncc[nH]4)ncn3c2)c1F` [Compound 20, 5-cyano-N-[2,4-difluoro-3-[1-(1H-imidazol-2-yl)imidazo[1,5-a]pyridin-6-yl]phenyl]-2-methoxypyridine-3-sulfonamide]: under 50 nM; `CNC(=O)c1ncc2c(F)c(-c3c(F)ccc(NS(=O)(=O)c4cc(Cl)cnc4OC)c3F)ccn12` [Compound 21, 7-[3-(5-chloro-2-methoxypyridine-3-sulfonamido)-2,6-difluorophenyl]-8-fluoro-N-methylimidazo[1,5-a]pyridine-3-carboxamide]: under 50 nM.
In the case of `CNC(=O)c1ncn2c(NC)c(-c3c(F)ccc(NS(=O)(=O)c4cc(Cl)cnc4OC)c3F)ccc12` [Compound 24, 6-[3-(5-chloro-2-methoxypyridine-3-sulfonamido)-2,6-difluorophenyl]-N-methyl-5-(methylamino)imidazo[1,5-a]pyridine-1-carboxamide], the IC50 is over 1000 nM.
The same measure, in the same setting: under `Cc1ncc(Cl)cc1S(=O)(=O)Nc1ccc(F)c(-c2ccc3c(-c4ncc[nH]4)ncn3c2)c1F` [Compound 25, 5-chloro-N-[2,4-difluoro-3-[1-(1H-imidazol-2-yl)imidazo[1,5-a]pyridin-6-yl]phenyl]-2-methylpyridine-3-sulfonamide] stands under 50 nM; under `COc1ncc(Cl)cc1S(=O)(=O)Nc1ncc(F)c(-c2ccc3c(-c4ncc[nH]4)ncn3c2)c1F` [Compound 26, 5-chloro-N-[3,5-difluoro-4-[1-(1H-imidazol-2-yl)imidazo[1,5-a]pyridin-6-yl]pyridin-2-yl]-2-methoxypyridine-3-sulfonamide], under 50 nM.
The same measure, in the same setting: under `O=S(=O)(Nc1ccc(F)c(-c2ccc3c(-c4ncc[nH]4)ncn3c2)c1F)c1cc(F)cc2c1CCC2O` (stereo not shown) [Compound 28, N-[2,4-difluoro-3-[1-(1H-imidazol-2-yl)imidazo[1,5-a]pyridin-6-yl]phenyl]-6-fluoro-1-hydroxy-2,3-dihydro-1H-indene-4-sulfonamide] stands under 50 nM; under `CNC(=O)c1ncc2cc(-c3c(F)ccc(NS(=O)(=O)c4cc(Cl)cnc4OC)c3F)ccn12` [Compound 30, 7-[3-(5-chloro-2-methoxypyridine-3-sulfonamido)-2,6-difluorophenyl]-N-methylimidazo[1,5-a]pyridine-3-carboxamide], under 50 nM; under `COc1ncc(Cl)cc1S(=O)(=O)Nc1ccc(F)c(-c2cn3cnc(-c4ncc[nH]4)c3cn2)c1F` [Compound 31, 5-chloro-N-[2,4-difluoro-3-[1-(1H-imidazol-2-yl)imidazo[1,5-a]pyrazin-6-yl]phenyl]-2-methoxypyridine-3-sulfonamide], under 50 nM.
The same measure, in the same setting: under `COc1ncc(Cl)cc1S(=O)(=O)Nc1ccc(F)c(-c2ccc3c(-c4ccn[nH]4)ncn3c2)c1F` [Compound 32, 5-chloro-N-[2,4-difluoro-3-[1-(2H-pyrazol-3-yl)imidazo[1,5-a]pyridin-6-yl]phenyl]-2-methoxypyridine-3-sulfonamide] stands under 50 nM; under `COc1ncc(Cl)cc1S(=O)(=O)Nc1ccc(F)c(-c2ccc3c(-c4cnn[nH]4)ncn3c2)c1F` [Compound 34, 5-chloro-N-[2,4-difluoro-3-[1-(3H-1,2,3-triazol-4-yl)imidazo[1,5-a]pyridin-6-yl]phenyl]-2-methoxypyridine-3-sulfonamide], under 50 nM.
